Counter-ions that a name gives are not always drawn. Like-named read-outs stand apart in the source and are kept apart here.
Assays:
P. falciparum 3D7 [1] = conditions: read-out: reported XC50; TCAMS screening dataset; cited from earlier work
P. falciparum 3D7 [2] = test: Inhibition of parasite growth in P. falciparum 3D7-infected red blood cells; type: cell-based, Plasmodium falciparum; conditions: for fold loss in 3D7 potency: R8 changes relative to parent analog (4a series); for 3D7 potency described in words (relative to comparator): comparator 4e unless 4-series (4a); for IC50: Plasmodium falciparum, 3D7, Erythrocyte; for fold reduction in 3D7 potency: relative to 4e (isopentyl R1)
HepG2 cells = test: HepG2 72 h cytotoxicity; conditions: HepG2 cytotoxicity vs antimalarial activity
Plasmodium = conditions: read-out: reported EC50; Novartis-GNF collection, GNF-Pf-5345; cited from earlier work
[3] = Rat PK experiment in vivo; conditions: iv, 1 mg/kg
HepG2 72 h cytotoxicity = conditions: human, HepG2 cells

Compound: CCN1C(=O)N(CCC(C)C)C2(CCN(Cc3ccc(OC)cc3O)CC2)C1=O [Compound 4a]
- IC50 (P. falciparum 3D7 [1]): 840 nM

Compound: CCN1C(=O)N(CCC(C)C)C2(CCN(Cc3cccc(OC)c3O)CC2)C1=O [Compound 4b]
- fold loss in 3D7 potency (P. falciparum 3D7 [2]): 6 fold

Compound: CCN1C(=O)N(CCC(C)C)C2(CCN(Cc3ccccc3O)CC2)C1=O [Compound 4d]
- 3D7 potency described in words (relative to comparator) (P. falciparum 3D7 [2]): did not have a significant impact on potency

Compound: CCN1C(=O)N(CCC(C)C)C2(CCN(Cc3cc(Cl)ccc3O)CC2)C1=O [Compound 4e, 8-(5-chloro-2-hydroxybenzyl)-3-ethyl-1-isopentyl-1,3,8-triazaspiro[4.5]decane-2,4-dione hydrochloride]
- IC50 (P. falciparum 3D7 [2]; read-out: IC50 in P. falciparum 3D7 infected erythrocytes): 310 nM
- 3D7 potency described in words (relative to comparator) (P. falciparum 3D7 [2]): about a five-fold improvement in potency
- selectivity index (HepG2 cells): > 100
- EC50 (Plasmodium): 349 nM
- clearance [3]: 152 mL/min/kg

Compound: CCN1C(=O)N(CCC(C)C)C2(CCN(Cc3cccc(Cl)c3)CC2)C1=O [Compound 4f]
- fold loss in 3D7 potency (P. falciparum 3D7 [2]): 8- to 60 fold

Compound: CCN1C(=O)N(CCC(C)C)C2(CCN(Cc3ccc(OC)cc3OC)CC2)C1=O [Compound 4g]
- fold loss in 3D7 potency (P. falciparum 3D7 [2]): 8- to 60 fold

Compound: CCN1C(=O)NC2(CCN(Cc3cc(Cl)ccc3O)CC2)C1=O [Compound 10a]
- fold reduction in 3D7 potency (P. falciparum 3D7 [2]): ≥ 20 fold

Compound: CCN1C(=O)N(CC)C2(CCN(Cc3cc(Cl)ccc3O)CC2)C1=O [Compound 10b]
- fold reduction in 3D7 potency (P. falciparum 3D7 [2]): ≥ 20 fold

Compound: CCN1C(=O)N(C2CCCC2)C2(CCN(Cc3cc(Cl)ccc3O)CC2)C1=O [Compound 10c]
- 3D7 potency described in words (relative to comparator) (P. falciparum 3D7 [2]): well tolerated

Compound: CCN1C(=O)N(c2ccccc2)C2(CCN(Cc3cc(Cl)ccc3O)CC2)C1=O [Compound 10d]
- 3D7 potency described in words (relative to comparator) (P. falciparum 3D7 [2]): detrimental to potency

Compound: CCN1C(=O)N(Cc2ccccc2)C2(CCN(Cc3cc(Cl)ccc3O)CC2)C1=O [Compound 10e]
- 3D7 potency described in words (relative to comparator) (P. falciparum 3D7 [2]): roughly equipotent

Compound: CCN1C(=O)N(CCc2ccccc2)C2(CCN(Cc3cc(Cl)ccc3O)CC2)C1=O [Compound 10f]
- 3D7 potency described in words (relative to comparator) (P. falciparum 3D7 [2]): roughly equipotent

Compound: CCN1C(=O)N(Cc2ccc(OC)cc2)C2(CCN(Cc3cc(Cl)ccc3O)CC2)C1=O [Compound 10g]
- 3D7 potency described in words (relative to comparator) (P. falciparum 3D7 [2]): tolerated with some modest effects on potency

Compound: CCN1C(=O)N(Cc2ccc(C#N)cc2)C2(CCN(Cc3cc(Cl)ccc3O)CC2)C1=O [Compound 10h]
- 3D7 potency described in words (relative to comparator) (P. falciparum 3D7 [2]): tolerated with some modest effects on potency

Compound: CC(C)CCN1C(=O)NC(=O)C12CCN(Cc1cc(Cl)ccc1O)CC2 [Compound 11a]
- 3D7 potency described in words (relative to comparator) (P. falciparum 3D7 [2]): dramatic loss in activity

Compound: CC(C)CCN1C(=O)N(C(C)C)C(=O)C12CCN(Cc1cc(Cl)ccc1O)CC2 [Compound 11b]
- 3D7 potency described in words (relative to comparator) (P. falciparum 3D7 [2]): improved potency three-fold

Compound: CC(C)CCN1C(=O)N(Cc2cccnc2)C(=O)C12CCN(Cc1cc(Cl)ccc1O)CC2 [Compound 11c]
- 3D7 potency described in words (relative to comparator) (P. falciparum 3D7 [2]): modest two-three-fold losses of potency

Compound: CC(C)CCN1C(=O)N(CCCc2ccncc2)C(=O)C12CCN(Cc1cc(Cl)ccc1O)CC2 [Compound 11d]
- 3D7 potency described in words (relative to comparator) (P. falciparum 3D7 [2]): modest two-three-fold losses of potency

Compound: CCN1C(=O)N(CCC(C)C)C2(CCN(Cc3cc(O)cc(Cl)c3)CC2)C1=O [Compound 12a]
- 3D7 potency described in words (relative to comparator) (P. falciparum 3D7 [2]): increasingly detrimental to 3D7 potency

Compound: CCN1C(=O)N(CCC(C)C)C2(CCN(Cc3cc(Br)ccc3O)CC2)C1=O [Compound 12d]
- 3D7 potency described in words (relative to comparator) (P. falciparum 3D7 [2]): well tolerated

Compound: CCN1C(=O)N(CCC(C)C)C2(CCN(Cc3cc(-c4ccccc4)ccc3O)CC2)C1=O [Compound 12f]
- IC50 at 72 h (HepG2 72 h cytotoxicity): > 50000 nM

Compound: CCN1C(=O)N(CCC(C)C)C2(CCN(Cc3c(O)cccc3Cl)CC2)C1=O [Compound 12g]
- 3D7 potency described in words (relative to comparator) (P. falciparum 3D7 [2]): essentially equipotent

Compound: CCN1C(=O)N(CCC(C)C)C2(CCN(Cc3ccc(Cl)cc3O)CC2)C1=O [Compound 12h]
- 3D7 potency described in words (relative to comparator) (P. falciparum 3D7 [2]): three- to seven-fold less potent
- IC50 at 72 h (HepG2 72 h cytotoxicity): > 50000 nM

Compound: CCN1C(=O)N(CCC(C)C)C2(CCN(Cc3cc(Cl)cc(Cl)c3O)CC2)C1=O [Compound 12j]
- 3D7 potency described in words (relative to comparator) (P. falciparum 3D7 [2]): equipotent

Compound: CCN1C(=O)N(CCC(C)C)C2(CCN(Cc3cc(Cl)c(Cl)cc3O)CC2)C1=O [Compound 12k]
- IC50 (P. falciparum 3D7 [2]; read-out: IC50 in P. falciparum 3D7 infected erythrocytes, 3D7 (chloroquine-sensitive) strain): 99 nM
- selectivity index (HepG2 cells): greater than 500
- IC50 at 72 h (HepG2 72 h cytotoxicity): > 50000 nM

Compound: CCN1C(=O)N(CCC(C)C)C2(CCN(C(=O)c3cc(Cl)ccc3O)CC2)C1=O [Compound 12m]
- 3D7 potency described in words (relative to comparator) (P. falciparum 3D7 [2]): lack of 3D7 potency

Compound: CCN1C(=O)N(CCC(C)C)C2(CCN(Cc3cccc4cc[nH]c34)CC2)C1=O [Compound 12u]
- 3D7 potency described in words (relative to comparator) (P. falciparum 3D7 [2]): hint of potency

From PMC4550221 (Bioorganic & medicinal chemistry, 2015)
